# pIC50: −log10 of the molar value.
# Key:
# [1] = target: T1, Lysine-specific demethylase 5B (Homo sapiens, UniProt Q9UGL1); assay: Inhibition of KDM5B (unknown origin)
# MDA-MB-231 = assay: Antiproliferative activity against human MDA-MB-231 cells assessed as growth inhibition; type: functional
# MCF7 = assay: Antiproliferative activity against human MCF7 cells assessed as growth inhibition; type: functional
# [2] = target: T1, Lysine-specific demethylase 5B; assay: Inhibition of KDM5B (1 to 755 residues) (unknown origin)
# [3] = target: Lysine-specific demethylase 5C (Homo sapiens, UniProt P41229); assay: Inhibition of KDM5C (1 to 789 residues) (unknown origin)
# [4] = Selectivity ratio of GI50 for human […] cells; type: functional
# T1 sequence (Q9UGL1 whole entry): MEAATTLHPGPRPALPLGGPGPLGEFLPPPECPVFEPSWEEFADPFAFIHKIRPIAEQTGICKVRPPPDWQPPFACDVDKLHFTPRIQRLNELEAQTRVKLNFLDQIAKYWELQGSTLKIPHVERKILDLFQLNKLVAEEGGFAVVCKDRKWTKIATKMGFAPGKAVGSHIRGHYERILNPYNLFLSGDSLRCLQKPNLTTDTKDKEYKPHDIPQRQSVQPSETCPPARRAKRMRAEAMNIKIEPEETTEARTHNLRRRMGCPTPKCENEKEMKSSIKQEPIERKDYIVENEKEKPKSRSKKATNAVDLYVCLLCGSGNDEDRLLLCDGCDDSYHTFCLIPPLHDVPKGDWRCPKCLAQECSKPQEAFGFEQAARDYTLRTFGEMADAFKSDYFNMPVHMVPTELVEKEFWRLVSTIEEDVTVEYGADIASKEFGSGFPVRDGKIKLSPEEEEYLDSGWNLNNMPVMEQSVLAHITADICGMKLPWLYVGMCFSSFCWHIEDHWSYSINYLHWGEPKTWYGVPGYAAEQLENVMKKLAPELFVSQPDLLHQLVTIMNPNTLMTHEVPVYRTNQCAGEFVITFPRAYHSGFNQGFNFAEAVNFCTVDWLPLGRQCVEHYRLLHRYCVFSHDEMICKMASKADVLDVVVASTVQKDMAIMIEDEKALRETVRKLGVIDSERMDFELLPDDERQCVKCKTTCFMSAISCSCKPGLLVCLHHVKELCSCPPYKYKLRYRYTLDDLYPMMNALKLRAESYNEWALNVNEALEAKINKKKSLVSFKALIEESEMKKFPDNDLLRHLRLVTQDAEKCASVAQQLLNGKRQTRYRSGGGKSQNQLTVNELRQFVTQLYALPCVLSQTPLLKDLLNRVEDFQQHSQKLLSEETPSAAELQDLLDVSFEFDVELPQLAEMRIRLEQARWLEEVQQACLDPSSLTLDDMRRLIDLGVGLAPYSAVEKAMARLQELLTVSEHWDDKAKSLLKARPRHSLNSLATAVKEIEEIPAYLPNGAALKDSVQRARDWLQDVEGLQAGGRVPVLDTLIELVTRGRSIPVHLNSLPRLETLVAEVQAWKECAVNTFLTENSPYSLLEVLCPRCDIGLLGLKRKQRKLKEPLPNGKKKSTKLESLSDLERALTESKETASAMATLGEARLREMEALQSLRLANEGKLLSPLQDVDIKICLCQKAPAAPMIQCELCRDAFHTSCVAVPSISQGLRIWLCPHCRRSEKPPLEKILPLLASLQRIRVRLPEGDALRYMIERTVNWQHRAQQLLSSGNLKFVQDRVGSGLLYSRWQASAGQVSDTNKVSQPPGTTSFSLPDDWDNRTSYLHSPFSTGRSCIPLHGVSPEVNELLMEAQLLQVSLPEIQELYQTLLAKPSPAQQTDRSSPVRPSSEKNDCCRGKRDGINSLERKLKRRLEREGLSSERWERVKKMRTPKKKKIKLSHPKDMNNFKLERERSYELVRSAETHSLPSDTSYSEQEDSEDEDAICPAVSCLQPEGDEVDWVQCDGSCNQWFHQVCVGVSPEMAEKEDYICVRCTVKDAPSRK
# Chain of Lysine-specific demethylase 5C (P41229 whole entry, the tested form may be a part): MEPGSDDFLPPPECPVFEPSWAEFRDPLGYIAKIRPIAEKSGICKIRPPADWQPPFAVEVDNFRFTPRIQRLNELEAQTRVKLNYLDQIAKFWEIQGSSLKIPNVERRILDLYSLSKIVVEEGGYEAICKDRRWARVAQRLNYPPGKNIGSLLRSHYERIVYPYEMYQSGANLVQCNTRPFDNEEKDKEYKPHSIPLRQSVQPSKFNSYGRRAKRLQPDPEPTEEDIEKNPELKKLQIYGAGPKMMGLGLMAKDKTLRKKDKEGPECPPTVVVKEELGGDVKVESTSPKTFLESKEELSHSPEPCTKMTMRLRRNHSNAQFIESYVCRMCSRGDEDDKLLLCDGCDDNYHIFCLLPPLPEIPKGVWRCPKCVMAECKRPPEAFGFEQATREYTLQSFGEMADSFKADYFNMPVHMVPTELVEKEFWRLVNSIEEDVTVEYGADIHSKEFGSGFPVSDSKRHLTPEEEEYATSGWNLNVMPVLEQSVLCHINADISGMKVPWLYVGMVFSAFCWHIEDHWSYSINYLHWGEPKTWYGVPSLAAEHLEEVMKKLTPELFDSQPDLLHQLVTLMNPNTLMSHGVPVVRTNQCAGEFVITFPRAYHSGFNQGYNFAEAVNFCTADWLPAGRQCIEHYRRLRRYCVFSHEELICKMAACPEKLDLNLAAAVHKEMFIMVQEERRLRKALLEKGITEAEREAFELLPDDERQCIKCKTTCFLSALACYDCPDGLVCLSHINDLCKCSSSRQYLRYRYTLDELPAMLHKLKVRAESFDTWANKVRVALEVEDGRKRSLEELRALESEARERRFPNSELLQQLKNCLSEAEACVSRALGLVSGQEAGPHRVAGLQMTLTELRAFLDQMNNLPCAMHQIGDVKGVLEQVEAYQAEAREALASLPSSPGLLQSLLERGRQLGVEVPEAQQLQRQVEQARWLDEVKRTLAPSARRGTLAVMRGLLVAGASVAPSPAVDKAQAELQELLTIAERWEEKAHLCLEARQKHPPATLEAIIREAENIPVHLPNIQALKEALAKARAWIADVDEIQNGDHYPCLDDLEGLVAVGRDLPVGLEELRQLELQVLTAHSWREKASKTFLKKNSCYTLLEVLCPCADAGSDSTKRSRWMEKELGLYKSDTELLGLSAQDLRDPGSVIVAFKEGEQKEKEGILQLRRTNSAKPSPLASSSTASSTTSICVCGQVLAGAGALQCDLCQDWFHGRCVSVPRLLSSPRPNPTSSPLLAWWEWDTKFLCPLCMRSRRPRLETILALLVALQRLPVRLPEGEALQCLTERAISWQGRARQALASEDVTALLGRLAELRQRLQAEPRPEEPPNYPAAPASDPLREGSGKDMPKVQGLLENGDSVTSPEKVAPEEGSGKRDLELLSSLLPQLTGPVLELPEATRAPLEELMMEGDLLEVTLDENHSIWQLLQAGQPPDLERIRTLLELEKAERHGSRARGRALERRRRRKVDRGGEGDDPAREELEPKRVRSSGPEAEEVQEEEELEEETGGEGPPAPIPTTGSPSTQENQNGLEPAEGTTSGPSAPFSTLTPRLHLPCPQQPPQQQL
smiles,measurement,setting,value
CC(C)c1c(-c2ccccc2)[nH]c2c(C#N)cnn2c1=O,pIC50,[1],8.00
Clc1ccc(N/N=C(\c2ccccc2)c2ccccn2)nc1,GI50,MDA-MB-231,300 nM
same,GI50,MCF7,22 nM
same,pIC50,[2],5.30
same,pIC50,[3],4.38
same,Selectivity ratio,[4],14
O=C(O)CCC(=O)C(=O)O [ALPHA-KETOGLUTARIC ACID],pIC50,[1],3.10
CCOC(=O)c1c(O)c2ccncc2[nH]c1=O,pIC50,[1],7.70
Cc1ccc(-n2sc3ccccc3c2=O)cc1,pIC50,[1],5.52
